Source: ChEMBL document CHEMBL5236577, “Targeting Aggrecanases for Osteoarthritis Therapy: From Zinc Chelation to Exosite Inhibition” (J Med Chem, 2022)
Bridge positions count the residues as written; N and C are the ends. Peptide text beside a SMILES is read from it.

What was measured:
[1] = target: T1, A disintegrin and metalloproteinase with thrombospondin motifs 4 (Homo sapiens, UniProt O75173); test: Inhibition of full length recombinant human ADAMTS-4
T1 sequence (O75173 whole entry): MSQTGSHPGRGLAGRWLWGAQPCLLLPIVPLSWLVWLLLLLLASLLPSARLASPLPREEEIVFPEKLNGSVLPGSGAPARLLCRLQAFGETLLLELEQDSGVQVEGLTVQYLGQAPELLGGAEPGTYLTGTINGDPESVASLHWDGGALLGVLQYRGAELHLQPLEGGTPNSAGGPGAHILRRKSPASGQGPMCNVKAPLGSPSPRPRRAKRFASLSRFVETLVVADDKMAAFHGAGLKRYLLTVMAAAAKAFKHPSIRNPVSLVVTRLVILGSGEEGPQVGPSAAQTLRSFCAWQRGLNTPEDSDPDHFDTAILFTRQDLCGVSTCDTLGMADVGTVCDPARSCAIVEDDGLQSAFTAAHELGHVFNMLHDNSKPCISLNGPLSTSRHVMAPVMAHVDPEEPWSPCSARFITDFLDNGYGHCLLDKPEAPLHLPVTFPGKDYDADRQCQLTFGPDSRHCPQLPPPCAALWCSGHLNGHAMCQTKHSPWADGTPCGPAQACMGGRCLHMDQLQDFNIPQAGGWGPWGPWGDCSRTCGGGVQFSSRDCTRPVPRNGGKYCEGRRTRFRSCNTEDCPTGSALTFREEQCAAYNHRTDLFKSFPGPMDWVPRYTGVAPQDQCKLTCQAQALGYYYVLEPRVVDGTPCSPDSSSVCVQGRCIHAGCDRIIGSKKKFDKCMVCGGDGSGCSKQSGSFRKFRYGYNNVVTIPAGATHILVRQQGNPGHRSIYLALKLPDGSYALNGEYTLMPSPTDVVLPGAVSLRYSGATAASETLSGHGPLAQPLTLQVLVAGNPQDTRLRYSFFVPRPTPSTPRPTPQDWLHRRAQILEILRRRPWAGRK

[2] = target: T2, Interstitial collagenase (Homo sapiens) (UniProt P03956); test: Inhibition of MMP1 (unknown origin) at 50 uM relative to control
T2 sequence (whole entry): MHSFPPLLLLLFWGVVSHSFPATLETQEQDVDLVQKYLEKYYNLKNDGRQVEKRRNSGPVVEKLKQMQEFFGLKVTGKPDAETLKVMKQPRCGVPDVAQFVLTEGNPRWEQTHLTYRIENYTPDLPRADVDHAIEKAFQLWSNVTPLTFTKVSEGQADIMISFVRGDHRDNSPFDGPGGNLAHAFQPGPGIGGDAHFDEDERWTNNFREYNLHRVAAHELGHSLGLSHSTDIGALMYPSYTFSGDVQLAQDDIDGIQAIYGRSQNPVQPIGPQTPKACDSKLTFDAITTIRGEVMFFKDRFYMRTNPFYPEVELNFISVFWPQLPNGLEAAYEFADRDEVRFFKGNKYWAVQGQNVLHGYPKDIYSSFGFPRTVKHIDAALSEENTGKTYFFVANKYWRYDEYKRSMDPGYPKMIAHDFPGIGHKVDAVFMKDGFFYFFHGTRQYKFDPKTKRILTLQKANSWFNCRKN

[3] = target: T3, Collagenase 3 (Homo sapiens, UniProt P45452); test: Inhibition of MMP13 (unknown origin) at 50 uM relative to control
[4] = target: Neutrophil collagenase (Homo sapiens, UniProt P22894); test: Inhibition of MMP8 (unknown origin)
Sequence of Neutrophil collagenase (P22894 whole entry): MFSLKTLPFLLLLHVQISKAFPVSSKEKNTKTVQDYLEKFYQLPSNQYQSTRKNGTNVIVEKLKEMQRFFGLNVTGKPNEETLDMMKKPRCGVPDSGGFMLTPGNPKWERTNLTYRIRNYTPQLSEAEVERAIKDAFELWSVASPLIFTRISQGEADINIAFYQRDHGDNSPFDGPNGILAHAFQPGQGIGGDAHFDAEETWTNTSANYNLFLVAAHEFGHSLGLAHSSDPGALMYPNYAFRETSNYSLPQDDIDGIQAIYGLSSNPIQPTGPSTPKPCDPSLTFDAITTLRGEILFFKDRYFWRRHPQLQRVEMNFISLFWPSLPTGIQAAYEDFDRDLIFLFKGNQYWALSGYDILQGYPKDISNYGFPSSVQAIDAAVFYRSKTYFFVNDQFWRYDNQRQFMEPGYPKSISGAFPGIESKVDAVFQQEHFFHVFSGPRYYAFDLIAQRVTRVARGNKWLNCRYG

[5] = target: T1, A disintegrin and metalloproteinase with thrombospondin motifs 4; test: Inhibition of ADAMTS-4 (unknown origin) by FRET assay
[6] = target: Macrophage metalloelastase (Homo sapiens, UniProt P39900); test: Inhibition of MMP12 (unknown origin) by FRET assay
Sequence of Macrophage metalloelastase (P39900 whole entry): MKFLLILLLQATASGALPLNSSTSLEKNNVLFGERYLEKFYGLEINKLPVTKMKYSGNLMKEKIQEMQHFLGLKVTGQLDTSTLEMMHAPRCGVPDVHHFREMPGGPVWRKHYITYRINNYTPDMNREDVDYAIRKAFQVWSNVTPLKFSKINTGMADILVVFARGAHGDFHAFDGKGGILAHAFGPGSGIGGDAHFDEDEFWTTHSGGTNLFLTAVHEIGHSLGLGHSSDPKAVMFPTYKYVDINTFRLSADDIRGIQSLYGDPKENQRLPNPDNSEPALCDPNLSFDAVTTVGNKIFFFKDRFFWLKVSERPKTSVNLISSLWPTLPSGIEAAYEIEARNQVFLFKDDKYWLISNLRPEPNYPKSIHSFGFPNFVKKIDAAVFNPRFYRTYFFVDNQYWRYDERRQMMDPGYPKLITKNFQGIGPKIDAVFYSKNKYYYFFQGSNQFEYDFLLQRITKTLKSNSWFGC

[7] = target: T3, Collagenase 3; test: Inhibition of MMP13 (unknown origin) by FRET assay
[8] = target: Matrix metalloproteinase-14 (Homo sapiens, UniProt P50281); test: Inhibition of MMP14 (unknown origin) by FRET assay
[9] = target: T4, Interstitial collagenase (Homo sapiens, UniProt P03956); test: Inhibition of MMP1 (unknown origin)
T4 sequence (P03956 whole entry): T2 sequence (whole entry)

[10] = target: 72 kDa type IV collagenase (Homo sapiens, UniProt P08253); test: Inhibition of MMP2 (unknown origin)
Sequence of 72 kDa type IV collagenase (P08253 whole entry): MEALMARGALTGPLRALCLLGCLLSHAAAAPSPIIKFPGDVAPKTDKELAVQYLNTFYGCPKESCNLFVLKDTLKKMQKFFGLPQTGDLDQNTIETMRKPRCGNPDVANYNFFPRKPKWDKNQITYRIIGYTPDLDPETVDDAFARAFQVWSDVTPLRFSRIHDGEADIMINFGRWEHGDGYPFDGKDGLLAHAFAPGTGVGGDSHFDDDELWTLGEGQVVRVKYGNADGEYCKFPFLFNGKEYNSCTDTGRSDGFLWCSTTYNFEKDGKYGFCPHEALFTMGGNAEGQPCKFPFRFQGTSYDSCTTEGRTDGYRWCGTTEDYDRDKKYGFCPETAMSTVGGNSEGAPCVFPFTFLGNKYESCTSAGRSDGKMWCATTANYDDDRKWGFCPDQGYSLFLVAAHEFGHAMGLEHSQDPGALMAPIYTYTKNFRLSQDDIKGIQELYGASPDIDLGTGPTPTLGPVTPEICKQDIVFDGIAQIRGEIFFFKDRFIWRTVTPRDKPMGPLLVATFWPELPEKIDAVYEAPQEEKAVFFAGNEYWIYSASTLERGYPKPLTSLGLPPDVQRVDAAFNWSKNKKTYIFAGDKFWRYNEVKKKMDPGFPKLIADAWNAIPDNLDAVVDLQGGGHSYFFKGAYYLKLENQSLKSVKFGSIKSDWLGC

[11] = target: T5, A disintegrin and metalloproteinase with thrombospondin motifs 5 (Homo sapiens) (UniProt Q9UNA0); test: Inhibition of recombinant human ADAMTS-5
T5 sequence (whole entry): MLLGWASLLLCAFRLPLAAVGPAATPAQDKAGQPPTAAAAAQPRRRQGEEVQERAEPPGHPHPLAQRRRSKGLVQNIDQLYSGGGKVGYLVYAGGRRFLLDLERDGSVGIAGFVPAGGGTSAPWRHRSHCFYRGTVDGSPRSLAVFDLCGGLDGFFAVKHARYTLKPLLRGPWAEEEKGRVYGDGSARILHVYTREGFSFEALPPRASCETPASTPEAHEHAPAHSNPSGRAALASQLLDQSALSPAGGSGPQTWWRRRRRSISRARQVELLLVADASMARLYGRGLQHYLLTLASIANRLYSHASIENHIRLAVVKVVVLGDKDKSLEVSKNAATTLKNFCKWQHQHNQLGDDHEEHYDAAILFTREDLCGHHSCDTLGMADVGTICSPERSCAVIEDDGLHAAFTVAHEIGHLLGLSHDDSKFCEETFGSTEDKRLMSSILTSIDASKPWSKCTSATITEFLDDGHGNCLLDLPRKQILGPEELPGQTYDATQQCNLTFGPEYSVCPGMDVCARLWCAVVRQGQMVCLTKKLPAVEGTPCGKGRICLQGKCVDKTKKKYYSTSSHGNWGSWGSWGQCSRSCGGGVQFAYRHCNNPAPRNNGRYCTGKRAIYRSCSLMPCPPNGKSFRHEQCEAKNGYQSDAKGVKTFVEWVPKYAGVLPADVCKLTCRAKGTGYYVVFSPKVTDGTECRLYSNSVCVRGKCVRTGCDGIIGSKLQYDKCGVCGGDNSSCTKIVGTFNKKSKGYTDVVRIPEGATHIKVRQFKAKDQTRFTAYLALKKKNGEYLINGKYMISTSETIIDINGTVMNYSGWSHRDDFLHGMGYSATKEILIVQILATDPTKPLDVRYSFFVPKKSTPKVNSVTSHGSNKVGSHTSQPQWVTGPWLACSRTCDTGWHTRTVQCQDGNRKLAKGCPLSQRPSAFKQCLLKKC

[12] = target: Matrix metalloproteinase-9 (Homo sapiens, UniProt P14780); test: Inhibition of MMP9 (unknown origin)
Sequence of Matrix metalloproteinase-9 (P14780 whole entry): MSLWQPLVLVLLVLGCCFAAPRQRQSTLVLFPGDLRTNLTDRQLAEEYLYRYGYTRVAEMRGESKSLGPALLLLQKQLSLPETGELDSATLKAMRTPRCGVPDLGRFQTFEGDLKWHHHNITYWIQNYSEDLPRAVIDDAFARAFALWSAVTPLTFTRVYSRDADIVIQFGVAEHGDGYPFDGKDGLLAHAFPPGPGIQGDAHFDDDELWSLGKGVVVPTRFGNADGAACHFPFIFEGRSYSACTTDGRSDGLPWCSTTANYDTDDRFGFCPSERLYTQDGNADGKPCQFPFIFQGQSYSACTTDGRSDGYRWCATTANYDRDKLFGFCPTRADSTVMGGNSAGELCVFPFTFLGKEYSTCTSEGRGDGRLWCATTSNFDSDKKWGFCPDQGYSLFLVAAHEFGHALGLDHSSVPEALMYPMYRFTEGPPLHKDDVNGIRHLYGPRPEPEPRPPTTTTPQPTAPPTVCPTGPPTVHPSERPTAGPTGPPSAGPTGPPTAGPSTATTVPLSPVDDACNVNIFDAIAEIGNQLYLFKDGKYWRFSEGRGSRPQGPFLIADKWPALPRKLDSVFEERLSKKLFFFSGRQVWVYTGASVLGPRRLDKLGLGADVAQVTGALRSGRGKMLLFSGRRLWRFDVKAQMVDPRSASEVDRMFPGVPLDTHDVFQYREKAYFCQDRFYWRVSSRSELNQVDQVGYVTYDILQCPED

[13] = target: T1, A disintegrin and metalloproteinase with thrombospondin motifs 4; test: Inhibition of human ADAMTS-4
[14] = target: T6, A disintegrin and metalloproteinase with thrombospondin motifs 5 (Homo sapiens, UniProt Q9UNA0); test: Inhibition of human ADAMTS-5
T6 sequence (Q9UNA0 whole entry): T5 sequence (whole entry)

How did the IC50 [1] turn out when `CC(C)C[C@H](NC(=O)[C@H](CO)NC(=O)[C@H](CCC(=O)O)NC(=O)[C@H](CO)NC(=O)[C@H](C)NC(=O)[C@@H](N)CS)C(=O)N[C@@H](CS)C(=O)O` (H-CASESLC-OH) was run?
Its IC50 is 74 µM.

`CC(C)C[C@H](NC(=O)[C@H](CO)NC(=O)[C@H](CCC(=O)O)NC(=O)[C@H](CO)NC(=O)[C@H](C)NC(=O)[C@H](CCC(=O)O)NC(=O)[C@@H](NC(=O)[C@@H](N)CS)[C@@H](C)O)C(=O)N[C@@H](C)C(=O)NCC(=O)N[C@@H](CS)C(=O)O` (H-CTEASESLAGC-OH) was tested. Which IC50 [1] did it give?
Its IC50 is 120 µM.

How did the inhibition [2] turn out when `O=C(O[C@@H]1Cc2c(O)cc(O)cc2O[C@@H]1c1ccc(O)c(O)c1)c1cc(O)c(O)c(O)c1` was run?
Its inhibition is 14%.

And the inhibition [3]?
The inhibition was 20%.

How did the IC50 [1] turn out when `CC(C)C[C@H](NC(=O)[C@H](CO)NC(=O)[C@H](CCC(=O)O)NC(=O)[C@H](CO)NC(=O)[C@H](C)NC(=O)[C@H](CCC(=O)O)NC(=O)[C@@H](N)CS)C(=O)N[C@@H](C)C(=O)NCC(=O)N[C@@H](CS)C(=O)O` (H-CEASESLAGC-OH) was run?
The IC50 was 34 µM.

How did the IC50 [1] turn out when Ac-NEFRQRETYMVF-NH2 was run?
Its IC50 is 35 µM.

With `O=C(O[C@@H]1Cc2c(O)cc(O)cc2O[C@@H]1c1cc(O)c(O)c(O)c1)c1cc(O)c(O)c(O)c1` as the molecule, how does the inhibition [2] read?
The inhibition was 29%.

What about the inhibition [3] of the same molecule?
Its inhibition is 30%.

With `CC(C)(Cc1ccc(F)cc1)NC(=O)[C@H](CCC(=O)O)NC(=O)c1ccc(-c2ccccc2)cc1` [AGG-523] as the molecule, how does the IC50 [4] read?
The IC50 was 3.5 µM.

And the IC50 [5]?
The IC50 was under 0.03 µM.

And the IC50 [6]?
Its IC50 is 1.96 µM.

What about the IC50 [7] of the same molecule?
Its IC50 is over 50 µM.

What about the IC50 [8] of the same molecule?
Its IC50 is over 200 µM.

And the IC50 [9]?
Its IC50 is over 200 µM.

And the IC50 [10]?
Its IC50 is 9.58 µM.

For `CC(C)C[C@@H]1NC(=O)[C@H](CO)NC(=O)[C@H](CCC(=O)O)NC(=O)[C@H](CO)NC(=O)[C@H](C)NC(=O)[C@H](CCC(=O)O)NC(=O)[C@@H](N)CSSC[C@@H](C(=O)O)NC(=O)CNC(=O)[C@H](C)NC1=O` (H-CEASESLAGC-OH; disulfide 1-10), which IC50 [1] is on record?
The IC50 was 3.7 µM.

Which IC25 [11] does the source give for `O=C(NO)c1cccc2c1C(=O)N(c1ccc(OCc3ccccc3)cc1)C2` here?
Its IC25 is 2.5 µM.

With `O=C(NO)[C@@H](NCC1CC1)[C@@H](Cc1cccc(O)c1)C(=O)N[C@H]1c2ccccc2C[C@H]1O` as the molecule, how does the Ki [4] read?
The Ki was 0.321 µM.

And the Ki [12]?
Its Ki is 1.26 µM.

And the Ki [9]?
The Ki was over 8 µM.

What about the Ki [10] of the same molecule?
Its Ki is 5 µM.

How did the IC50 [13] turn out when `CC(=O)N[C@H]1[C@H](OCCCn2cc(CN([C@@H](C(=O)O)C(C)C)S(=O)(=O)c3ccc(-c4ccccc4)cc3)nn2)O[C@H](CO)[C@@H](O)[C@@H]1O` was run?
Its IC50 is 40 µM.

What about the IC50 [14] of the same molecule?
Its IC50 is 68 µM.
